The source of these data is patent publication US10829499B2, “Tetracyclic heterocycle compounds useful as HIV integrase inhibitors” (MERCK SHARP & DOHME CORP., priority 2016, dated 2020).

Like-named read-outs stand apart in the source and are kept apart here.

The subject of this assay is HIV-1 (NL4-3 strain). Put plainly: Assay for Inhibition of HIV Replication (kinetic assay, MT4-gag-GFP reporter cell line; VIKING). In kind it is cell-based. As to the method: This assay is a kinetic assay that employs a reporter cell line (MT4-gag-GFP) to quantify the number of new cells infected in each round of replication.
MT4-GFP cells (250,000 cells/ml) were bulk-infected with HIV-1 (NL4-3 strain) at low multiplicity of infection (MOI) in RPMI cell culture medium+10% FBS for 24 hours. Cells were then washed once in RPMI cell culture medium+10% FBS and resuspended in RPMI cell culture medium+0% or 10% or 100% normal human serum (NHS). Test compounds were serial-diluted in DMSO on an ECHO® liquid handler. The infected MT4-GFP cells were added to a 384-well poly-D-lysine coated black plate with clear bottom in which the diluted test compounds were placed. The cells were seeded at 8,000 cells per well and the final DMSO concentration was 0.4%. The infected cells (Green GFP cells) were quantified at both 24 and 48 hours post incubation using Acumen eX3. Viral reproductive ratio (R0) was determined using the number of infected cells at 48 hours divided by the number of infected cells at 24 hours. Percent viral growth inhibition was calculated by [1-(R-Rtripledrug),/(RDMSO-Rtripledrug)]*100. Compound potency IP or IC50 was determined by a 4-parameter dose response curve analysis. In vitro potency in the cell-based assay in the absence of normal human serum (NHS) and the presence of 100% NHS.

[1] abbreviates: MT4-GFP cells infected with HIV-1 NL4-3, 0% normal human serum (NHS), read-out: VIKING IP50 (nM) with 0% NHS.
Setting [2] is: MT4-GFP cells infected with HIV-1 NL4-3, 100% normal human serum (NHS), read-out: VIKING IP50 (nM) with 100% NHS.
Setting [3] is: Human immunodeficiency virus 1, NL43, MT4-GFP cells infected with HIV-1 NL4-3, 0% normal human serum (NHS), read-out: VIKING IP50 (nM) with 0% NHS.
[4] abbreviates: Human immunodeficiency virus 1, NL43, MT4-GFP cells infected with HIV-1 NL4-3, 100% normal human serum (NHS), read-out: VIKING IP50 (nM) with 100% NHS.

In the case of `O=C(NCc1c(F)cc(F)cc1F)c1c2n3c(c(O)c1=O)C(=O)N1C4CCC(C4)OC1C3CC2` (centres unmarked) [Compound 171], the IC50 was found to be 2.82 nM under setting [1] and 74.6 nM under setting [2].

As for `O=C(NCc1ccccc1F)c1c2n3c(c(O)c1=O)C(=O)N1CCOC1C3CC2` (single isomer, unassigned) [Compound 11], the IC50 under setting [1] is 1.09 nM and the IC50 under setting [2] was 589 nM.

`O=C(NCc1c(F)cc(F)cc1F)c1c2n3c(c(O)c1=O)C(=O)N1CCOC1C3CC2` (single isomer, unassigned) [Compound 19]: the IC50 worked out at 0.539 nM under setting [1] and 1230 nM under setting [2].

Consider `O=C(NCc1cccc(Cl)c1F)c1c2n3c(c(O)c1=O)C(=O)N1C4CCC(C4)OC1C3CC2` (centres unmarked) [Compound 155], for which the IC50 was determined as 2.77 nM under setting [1] and 7460 nM under setting [2].

On to `O=C(NCc1c(F)cccc1F)c1c2n3c(c(O)c1=O)C(=O)N1CCOC1C3CC2` (single isomer, unassigned) [Compound 15], for which the IC50 runs as follows: under setting [1], 0.609 nM; under setting [2], 373 nM.

Regarding `O=C(NCc1ccc(F)cc1)c1c2n3c(c(O)c1=O)C(=O)N1CCCOC1C3CC2` (single isomer, unassigned) [Compound 54], the IC50 stood at 0.654 nM under setting [1] and 904 nM under setting [2].

On to `CC(=O)N1C[C@H](C)N2C(=O)c3c(O)c(=O)c(C(=O)NCc4cccc(Cl)c4F)c4n3C(CC4)C12` (some centres unmarked) [Compound 121], for which the IC50 under setting [3] worked out at 1.45 nM and the IC50 under setting [4] came to 308 nM.

For the compound `O=C(NCc1cccc(Cl)c1F)c1c2n3c(c(O)c1=O)C(=O)N1CCCO[C@H]1[C@H]3CC2` [Compound 47], the IC50 runs as follows: under setting [3], 2.39 nM; under setting [4], 2680 nM.

On to `C[C@H]1CN2C(=O)c3c(O)c(=O)c(C(=O)NCc4cccc(Cl)c4F)c4n3C(CC4)C2O1` (some centres unmarked) [Compound 42], for which the IC50 was 1.38 nM under setting [3] and 1570 nM under setting [4].

Turning to `CC12OCCCN1C(=O)c1c(O)c(=O)c(C(=O)NCc3ccc(F)cc3F)c3n1C2CC3` (centres unmarked) [Compound 135], the IC50 by setting is: under setting [1], 0.791 nM; under setting [2], 1280 nM.

For the compound `C[C@H]1COC2C3CCc4c(C(=O)NCc5ccc(F)cc5F)c(=O)c(O)c(n43)C(=O)N21` (single isomer, unassigned) [Compound 27], the IC50 reads like this: under setting [3], 0.313 nM; under setting [2], 956 nM.

As to `O=C(NCc1c(F)cccc1F)c1c2n3c(c(O)c1=O)C(=O)N1CCOC1C3CC2` (single isomer, unassigned) [Compound 14], the IC50 was determined as 0.827 nM under setting [1] and 194 nM under setting [2].

Turning to `O=C(NCc1cccc(Cl)c1F)c1c2n3c(c(O)c1=O)C(=O)N1CCCO[C@@H]1[C@@H]3CC2` (single isomer, unassigned) [Compound 48], the IC50 runs as follows: under setting [3], 1.31 nM; under setting [4], 27.3 nM.

Consider `CC12OCCCN1C(=O)c1c(O)c(=O)c(C(=O)NCc3ccc(F)cc3F)c3n1C2CC3` (centres unmarked) [Compound 134], for which the IC50 amounted to 1.29 nM under setting [1] and 20.5 nM under setting [2].

For the compound `CCNC1CC2C3OCCCN3C(=O)c3c(O)c(=O)c(C(=O)NCc4c(F)cc(F)cc4F)c1n32` (centres unmarked) [Compound 182], the IC50 stood at 6.63 nM under setting [1] and 44.9 nM under setting [2].

For the compound `CCNC1CC2C3OCCCN3C(=O)c3c(O)c(=O)c(C(=O)NCc4cccc(F)c4F)c1n32` (centres unmarked) [Compound 186], the IC50 reads like this: under setting [1], 9.86 nM; under setting [2], 36.5 nM.

With `C[C@@H]1CN2C(=O)c3c(O)c(=O)c(C(=O)NCc4cccc(Cl)c4F)c4n3C(CC4)C2O1` (single isomer, unassigned) [Compound 40], the IC50 under setting [1] turned out to be 1.84 nM and the IC50 under setting [2] turned out to be 8000 nM.

For the compound `O=C(NCc1cccc(Cl)c1F)c1c2n3c(c(O)c1=O)C(=O)N1CCCCOC1C3CC2` (single isomer, unassigned) [Compound 65], the IC50 is, setting by setting: under setting [1], 0.939 nM; under setting [2], 6680 nM.

For the compound `CCCN1C2C3CCc4c(C(=O)NCc5cccc(Cl)c5F)c(=O)c(O)c(n43)C(=O)N2C[C@@H]1C` (some centres unmarked) [Compound 108], the IC50 by setting is: under setting [1], 1.17 nM; under setting [2], 80.1 nM.

Consider `COC1CC2C3N(C)CCN3C(=O)c3c(O)c(=O)c(C(=O)NCc4ccc(F)cc4F)c1n32` (centres unmarked) [Compound 125], for which the IC50 is, setting by setting: under setting [1], 10.3 nM; under setting [2], 57.7 nM.

For `O=C(NCc1ccccc1F)c1c2n3c(c(O)c1=O)C(=O)N1CCOC1C3CC2` (single isomer, unassigned) [Compound 12], the IC50 under setting [1] amounted to 1.39 nM and the IC50 under setting [2] came out at 892 nM.

Take `CCNC1CC2C3OCCCN3C(=O)c3c(O)c(=O)c(C(=O)NCc4cccc(F)c4F)c1n32` (centres unmarked) [Compound 192]: the IC50 reads like this: under setting [1], 8.76 nM; under setting [2], 92.3 nM.

As for `O=C(NCc1ccc(F)cc1)c1c2n3c(c(O)c1=O)C(=O)N1CCCOC1C3CC2` (single isomer, unassigned) [Compound 53], the IC50 under setting [1] came out at 0.963 nM and the IC50 under setting [2] was found to be 393 nM.

Regarding `COC1CC2C3OCCN3C(=O)c3c(O)c(=O)c(C(=O)NCc4ccc(F)cc4F)c1n32` (single isomer, unassigned) [Compound 73], the IC50 came out at 0.679 nM under setting [1] and 49.4 nM under setting [2].

On to `C[C@H]1CN2C(=O)c3c(O)c(=O)c(C(=O)NCc4cccc(Cl)c4F)c4n3C(CC4)C2O1` (single isomer, unassigned) [Compound 45], for which the IC50 by setting is: under setting [1], 5.81 nM; under setting [2], 486 nM.

`O=C(NCc1ccc(F)c(Cl)c1)c1c2n3c(c(O)c1=O)C(=O)N1CCOC1C3CC2` (single isomer, unassigned) [Compound 22]: the IC50 reads like this: under setting [3], 0.895 nM; under setting [2], 503 nM.

Take `C[C@H]1COC2C3CCc4c(C(=O)NCc5ccc(F)cc5F)c(=O)c(O)c(n43)C(=O)N21` (single isomer, unassigned) [Compound 28]: the IC50 under setting [1] came out at 0.401 nM and the IC50 under setting [2] was 257 nM.

With `COC1CC2C3OCCN3C(=O)c3c(O)c(=O)c(C(=O)NCc4ccc(F)cc4F)c1n32` (single isomer, unassigned) [Compound 77], the IC50 turned out to be 1.56 nM under setting [1] and 2160 nM under setting [2].

For `O=C(NCc1ccc(F)c(Cl)c1)c1c2n3c(c(O)c1=O)C(=O)N1CCOC1C3CC2` (single isomer, unassigned) [Compound 24], the IC50 was determined as 8000 nM under setting [4] and 0.622 nM under setting [1].

In the case of `C[C@H]1CNC2C3CCc4c(C(=O)NCc5ccc(F)cc5F)c(=O)c(O)c(n43)C(=O)N21` (some centres unmarked) [Compound 100], the IC50 amounted to 1.94 nM under setting [1] and 56.5 nM under setting [2].

As to `C[C@H]1CN2C(=O)c3c(O)c(=O)c(C(=O)NCc4ccc(F)cc4F)c4n3C(CC4)C2N1` (some centres unmarked) [Compound 96], the IC50 was 2.04 nM under setting [1] and 13.8 nM under setting [2].

As for `CCNC1CC2C3OCCCN3C(=O)c3c(O)c(=O)c(C(=O)NCc4cccc(Cl)c4F)c1n32` (centres unmarked) [Compound 194], the IC50 worked out at 15.7 nM under setting [1] and 35.1 nM under setting [2].

Take `CC(C)N1C[C@H](C)N2C(=O)c3c(O)c(=O)c(C(=O)NCc4cccc(Cl)c4F)c4n3C(CC4)C12` (some centres unmarked) [Compound 115]: the IC50 reads like this: under setting [3], 7.4 nM; under setting [4], 113 nM.

Regarding `C[C@H]1CNC2C3CCc4c(-c5nnc(Cc6ccc(F)cc6F)s5)c(=O)c(O)c(n43)C(=O)N21` (some centres unmarked) [Compound 129], the IC50 reads like this: under setting [1], 15.3 nM; under setting [2], 283 nM.

For the compound `O=C(NCc1ccc(F)c(Cl)c1F)c1c2n3c(c(O)c1=O)C(=O)N1C4CCC(C4)OC1C3CC2` (centres unmarked) [Compound 157], the IC50 was determined as 12.9 nM under setting [1] and 733 nM under setting [2].

Take `CCNC1CC2C3OCCCN3C(=O)c3c(O)c(=O)c(C(=O)NCc4cccc(Cl)c4F)c1n32` (centres unmarked) [Compound 196]: the IC50 under setting [1] was found to be 15.3 nM and the IC50 under setting [2] was found to be 883 nM.

Consider `CCNC1CC2C3OCCCN3C(=O)c3c(O)c(=O)c(C(=O)NCc4ccc(F)cc4F)c1n32` (centres unmarked) [Compound 204], for which the IC50 is 15.7 nM under setting [1] and 4830 nM under setting [2].

Take `C[C@H]1CN2C(=O)c3c(O)c(=O)c(C(=O)NCc4cccc(Cl)c4F)c4n3C(CC4)C2N1` (some centres unmarked) [Compound 91]: the IC50 stood at 1 nM under setting [1] and 464 nM under setting [2].

As for `O=C(NCc1ccc(F)cc1)c1c2n3c(c(O)c1=O)C(=O)N1C4CCC(C4)OC1C3CC2` (centres unmarked) [Compound 162], the IC50 under setting [1] was 3.9 nM and the IC50 under setting [2] was 50.4 nM.

`O=C(NCc1ccc(F)c(Cl)c1F)c1c2n3c(c(O)c1=O)C(=O)N1C4CCC(C4)OC1C3CC2` (centres unmarked) [Compound 158]: the IC50 by setting is: under setting [1], 4 nM; under setting [2], 16100 nM.

In the case of `CCNC1C[C@H]2[C@H]3OC4CCC(C4)N3C(=O)c3c(O)c(=O)c(C(=O)NCc4ccc(F)cc4F)c1n32` (some centres unmarked) [Compound 176], the IC50 under setting [3] came out at 16.8 nM and the IC50 under setting [4] is 129 nM.

As for `C[C@@H]1COC2C3CCc4c(C(=O)NCc5ccc(F)cc5F)c(=O)c(O)c(n43)C(=O)N21` (single isomer, unassigned) [Compound 33], the IC50 by setting is: under setting [3], 0.543 nM; under setting [4], 1940 nM.

Take `CCNC1CC2C3OCCCN3C(=O)c3c(O)c(=O)c(C(=O)NCc4cccc(Cl)c4F)c1n32` (centres unmarked) [Compound 193]: the IC50 is, setting by setting: under setting [1], 7.89 nM; under setting [2], 2910 nM.
